# Values of other authors, collected in patent publication US20260048172A1, “WOUND DRESSINGS” (ConvaTec Limited, priority 2023, published 2026).
substance,measurement,setting,value
citric acid [citric/citrate],pka (third),Ka = 0.0000004,pka = 6.4
same,pka (second),Ka = 0.0000200,pka = 4.7
same,pka (first),Ka = 0.0007943,pka = 3.1
